Here are results for 12 compounds from US12053451B2, “Arginase inhibitors and their therapeutic applications” (OncoArendi Therapeutics S.A., priority 2016, dated 2024).

Assay [1] concerns the target T1, intracellular arginase in macrophages isolated from murine bone marrow (BMDM) (Mus musculus, UniProt Q61176).
T1 construct: endogenous in cells; host or cells: primary bone marrow derived macrophages from Balb/c mice, M-CSF and IL-4 treated
T1 sequence (Q61176 1-323): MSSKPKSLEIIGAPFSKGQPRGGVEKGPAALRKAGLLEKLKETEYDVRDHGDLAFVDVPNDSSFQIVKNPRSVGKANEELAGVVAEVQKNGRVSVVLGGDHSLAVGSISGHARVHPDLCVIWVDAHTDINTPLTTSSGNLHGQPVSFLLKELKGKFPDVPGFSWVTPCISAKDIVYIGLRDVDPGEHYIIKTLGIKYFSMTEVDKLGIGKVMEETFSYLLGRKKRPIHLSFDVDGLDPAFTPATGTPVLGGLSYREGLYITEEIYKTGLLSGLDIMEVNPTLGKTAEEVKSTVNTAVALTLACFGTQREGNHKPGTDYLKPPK
As to the kind of experiment: Cell-based assay: intracellular arginase in bone marrow derived macrophages (BMDM), urea level. Details: species or system Balb/c mice. The following applies: murine BMDM with M-CSF and IL-4, urea measured 24 hours after compound; * = most potent diastereoisomer or mixture of diastereoisomers; read-out: Activity Class (BMDM). The procedure: Efficacy of Selected Examples Towards Intracellular Arginase in Macrophages Isolated from Murine Bone Marrow—Bone Marrow Derived Macrophages (BMDM)
Materials & Methods: The assay was performed according to modified literature protocol modification (Pineda-Torra I et al., Methods Mol Biol. 2015; 1339:101-9. Mia S et al. Scand J Immunol. 2014 May; 79(5):305-14). The femurs and tibias were isolated from Balb/c mice. Bones were cleaned from all attached tissues by using sterile swab without affecting the bone structure. Bones were sterilized by immersion in 70% ethanol for 5 min and then rinsed in PBS. The sides of the bones were cut off and flush with cold sterile PBS by using 26-G needle S into a 50 mL sterile tube with a cell strainer (Falcon™, Cat. No. U00149), until bone cavity appeared white. Then the cells were centrifuged (5 min at 500×G, 4° C.), washed twice with PBS and counted. Cells were plated in Petri dish in density of 1×10^6/mL and cultured in DMEM (Gibco, Cat. No. 31331-029) with 10% FBS, 1% pen-strep and 50 ng/mL M-CSF (PeproTech, Cat. No. 315-02), (37° C., 5% CO2). After five days cells were subcultured into P96 plate (BD, Cat. No. 353072) in density of 64 000 cells/well in medium supplemented with 50 ng/mL M-CSF and 20 ng/mL IL-4 (Biomibo Cat. No. 214-1). One day later exemplary compounds (dissolved in PBS) were added in several different concentrations and 24 hours later the level of urea was measured in each well (Jung D et al., Clin Chem. 1975, 21(8):1136-40). The concentration of urea in the absence of any compound was considered as the maximum. The absorbance of cell culture media (background) was subtracted from all the values.
(§1) For selected examples the activity class for ARG2 was estimated based on % of inhibition for 1 μM and 100 μM concentration of tested compounds.

Assay [2] has as its target T2, recombinant human arginase 1 (Homo sapiens, UniProt P05089).
T2 construct: purchased Biolegend 552502
T2 sequence (P05089 1-322): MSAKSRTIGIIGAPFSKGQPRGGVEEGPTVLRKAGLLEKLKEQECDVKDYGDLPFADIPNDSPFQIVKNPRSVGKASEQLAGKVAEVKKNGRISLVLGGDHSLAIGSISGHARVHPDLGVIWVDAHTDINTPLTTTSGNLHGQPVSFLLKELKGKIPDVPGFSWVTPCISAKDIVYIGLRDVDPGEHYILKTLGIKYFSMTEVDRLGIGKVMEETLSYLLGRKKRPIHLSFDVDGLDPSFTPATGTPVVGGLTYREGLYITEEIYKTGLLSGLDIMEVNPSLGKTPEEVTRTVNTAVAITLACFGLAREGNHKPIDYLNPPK
The assay is described as follows: Human arginase activity assay (urea measurement), arginase 1. The following applies: recombinant human arginase 1, pH 7.4, 37° C., 60 min; * = value for the most potent diastereoisomer or the mixture of diastereoisomers; read-out: Activity Class (ARG I). The class given is biochemical. The procedure: (§2) Human Arginase Activity Assay
The assay was run in the 96-well plate format, each reaction in the total volume of 100 uL. The assay is based on urea measurement, which is a product of L-arginine enzymatic degradation. […] The color product is developed by adding a mixture of reagent A (4 mM oPA in 50 mM boric acid in 1M sulfuric acid, 0.03% Brij-35) and reagent B (4 mM NED in 50 mM boric acid in 1M sulfuric acid, 0.03% Brij-35) in equal proportions. The absorbance for each well was measured at 530 nm.
(§3) For positive control, only the enzyme and substrate were used, the negative controls contained substrate solution with assay buffer. After incubating the microtiter plate at 37° C. for 60 min 150 μL of mixed reagents A and B was added to each well to stop the reaction. Absorbance was measured (λ=530 nm) 20 minutes later, after color development. The urea production in the absence of any compound was considered the maximum arginase activity. The absorbance in the absence of arginase (background) was subtracted from all the values. The normalized OD was used to generate a concentration-response curve by plotting the percent of inhibition against log[concentration] of the compound and using regression analysis (GraphPad Prism 7.0) to compute the IC50 values.

Assay [3] deals with T3, recombinant human arginase 2 (Homo sapiens, UniProt P78540).
T3 construct: made in house; host or cells: CHO
T3 sequence (P78540 23-354): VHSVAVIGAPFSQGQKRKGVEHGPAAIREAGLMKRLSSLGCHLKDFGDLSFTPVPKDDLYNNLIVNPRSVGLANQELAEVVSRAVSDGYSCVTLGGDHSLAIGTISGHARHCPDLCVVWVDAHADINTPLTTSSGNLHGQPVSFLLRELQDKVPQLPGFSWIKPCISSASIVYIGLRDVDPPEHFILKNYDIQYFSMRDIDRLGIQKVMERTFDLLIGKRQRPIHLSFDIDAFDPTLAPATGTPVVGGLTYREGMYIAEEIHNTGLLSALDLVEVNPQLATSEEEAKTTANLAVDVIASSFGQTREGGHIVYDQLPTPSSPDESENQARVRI
As to the kind of experiment: Human arginase activity assay (urea measurement), arginase 2. The class given is biochemical. The following applies: for selected examples class estimated from % of inhibition at 1 μM and 100 μM, * = most potent diastereoisomer or mixture of diastereoisomers, read-out: Activity Class (ARG II). The procedure:
as §2
An enzymatic assay with recombinant human arginases 1 (Biolegend, Cat. No. 552502) and 2 (homemade in eukaryotic expression system of CHO, purified by FPLC) was used in order to assess inhibitory activity of the compounds. The assay was run in the 96-well plate format, each reaction in the total volume of 100 uL. The assay is based on urea measurement, which is a product of L-arginine enzymatic degradation. (Baggio et al. J Pharmacol. Exp. Ther. 1999, 290, 1409-1416). The color product is developed by adding a mixture of reagent A (4 mM oPA in 50 mM boric acid in 1M sulfuric acid, 0.03% Brij-35) and reagent B (4 mM NED in 50 mM boric acid in 1M sulfuric acid, 0.03% Brij-35) in equal proportions. The absorbance for each well was measured at 530 nm.
as §3, with “Briefly, to each well of a 96-well microtiter plate 40 μL of enzyme in the reaction assay buffer (pH 7.4, 100 mM sodium phosphate buffer, 130 mM NaCl, 1 mg/mL albumin), 50 μL of the test compound solution and 10 μL of enzyme substrate solution (L-arginine hydrochloride, natural pH 5.6, final concentration 20 mM and a cofactor—manganese chloride, final concentration 150 μM) was added. For” for “For”
as §1

Each structure is given as a SMILES string. Structures can show the parent of a compound that is named as a salt.

Regarding `N[C@@]1(C(=O)O)CCC[C@@H](CCB(O)O)C1` (racemic) [Example 10, rac-(1S,3R)-1-Amino-3-(2-boronoethyl)cyclohexane-1-carboxylic acid hydrochloride], the IC50 was 10000 to 100000 nM in assay [1], 1000 to 10000 nM in assay [2] and 1000 to 10000 nM in assay [3].

For `CN(C)C[C@H]1CC[C@@H](CCB(O)O)C[C@]1(N)C(=O)O` (racemic) [Example 18, rac-(1R,2R,5R)-1-Amino-5-(2-boronoethyl)-2-((dimethylamino)methyl)-cyclohexane-1-carboxylic acid dihydrochloride], the IC50 was 100 to 1000 nM in assay [1], 100 to 1000 nM in assay [2] and 1000 to 10000 nM in assay [3].

As to `N[C@]1(C(=O)O)C[C@H](CCB(O)O)CC[C@H]1CN1CCCC1` (racemic) [Example 22, rac-(1R,2S,5R)-1-Amino-5-(2-boronoethyl)-2-(pyrrolidin-1-ylmethyl)-cyclohexane-1-carboxylic acid dihydrochloride], the IC50 in assay [1] was 100 to 1000 nM; in assay [2], 1 to 100 nM; in assay [3], 100 to 1000 nM.

Consider `CC1(C)CCN(C[C@@H]2CC[C@@H](CCB(O)O)C[C@]2(N)C(=O)O)CC1` (racemic) [Example 26, rac-(1R,2S,5R)-1-amino-5-(2-boronoethyl)-2-((4,4-dimethylpiperidin-1-yl)methyl)cyclohexanecarboxylic acid dihydrochloride], for which the IC50 was 1000 to 10000 nM in assay [1], 100 to 1000 nM in assay [2] and 100 to 1000 nM in assay [3].

Regarding `CN(Cc1ccc(Cl)c(Cl)c1)C[C@@H]1CC[C@@H](CCB(O)O)C[C@]1(N)C(=O)O` (racemic) [Example 28, rac-(1R,2S,5R)-1-amino-5-(2-boronoethyl)-2-(((3,4-dichlorobenzyl)(methyl)amino)methyl)cyclohexanecarboxylic acid dihydrochloride], the IC50 was 10000 to 100000 nM in assay [1], 100 to 1000 nM in assay [2] and 100 to 1000 nM in assay [3].

As to `CCN(CC)C[C@@H]1CC[C@@H](CCB(O)O)C[C@]1(N)C(=O)O` (racemic) [Example 30, rac-(1R,2S,5R)-1-amino-5-(2-boronoethyl)-2-((diethylamino)methyl)cyclohexanecarboxylic acid dihydrochloride], the IC50 in assay [1], in assay [2] and in assay [3] was 100 to 1000 nM each time.

In the case of `N[C@]1(C(=O)O)C[C@H](CCB(O)O)CC[C@H]1CN1CCCCC1` (racemic) [Example 31, rac-(1R,2S,5R)-1-amino-5-(2-boronoethyl)-2-(piperidin-1-ylmethyl)cyclohexanecarboxylic acid dihydrochloride], the IC50 is 1 to 100 nM in assay [1], 1 to 100 nM in assay [2] and 100 to 1000 nM in assay [3].

For the compound `CC(C)N(C)C[C@@H]1CC[C@@H](CCB(O)O)C[C@]1(N)C(=O)O` (racemic) [Example 32, rac-(1R,2S,5R)-1-amino-5-(2-boronoethyl)-2-((isopropyl(methyl)amino)methyl)cyclohexanecarboxylic acid], the IC50 in assay [1] and in assay [2] was 100 to 1000 nM throughout.

As for `CC(C)(C)NC[C@@H]1CC[C@@H](CCB(O)O)C[C@]1(N)C(=O)O` (racemic) [Example 33, rac-(1R,2S,5R)-1-amino-5-(2-boronoethyl)-2-((tert-butylamino)methyl)cyclohexanecarboxylic acid dihydrochloride], the results for the IC50 in assay [1] and in assay [2] were 100 to 1000 nM and 1 to 100 nM, respectively.

As for `N[C@]1(C(=O)O)C[C@H](CCB(O)O)CC[C@H]1CN1C2CCC1CC2` (racemic) [Example 34, rac-(1R,2S,5R)-2-(7-azabicyclo[2.2.1]heptan-7-ylmethyl)-1-amino-5-(2-boronoethyl)cyclohexanecarboxylic acid dihydrochloride], the IC50 in assay [1] is 100 to 1000 nM; in assay [2] it was 1 to 100 nM.

In the case of `N[C@]1(C(=O)O)C[C@H](CCB(O)O)CC[C@H]1CN1CCc2ccccc2C1` (racemic) [Example 35, rac-(1R,2S,5R)-1-amino-5-(2-boronoethyl)-2-((3,4-dihydroisoquinolin-2(1H)-yl)methyl)cyclohexanecarboxylic acid dihydrochloride], the IC50 in assay [1] is 10000 to 100000 nM; in assay [2], 100 to 1000 nM; in assay [3] it was 1000 to 10000 nM.

Take `N[C@@]1(C(=O)O)CNC[C@@H](CCB(O)O)C1` (racemic) [Example 57, rac-(3R,5S)-3-amino-5-(2-boronoethyl)piperidine-3-carboxylic acid dihydrochloride]: the figures for the IC50 in assay [1] and in assay [2] were 10000 to 100000 nM and 1000 to 10000 nM, respectively.
